Assay results reported in US20030203959A1, “Novel modulators of potassium channels” (4SC AG, priority 2002, published 2003).

Legend:
[1] = target: BK channels, cloned hSlo (α-hSlo and β-bSlo) in CHO cells (Homo sapiens, UniProt Q12791); test: Em-Assay (voltage sensitive dye DiBAC(4)3 fluorescence, membrane potential); assay type: cell-based; details: ratio of the compound effect (50 μM) compared to the maximal effect of NS004 (25 or 50 μM); hSlo transfected CHO cells
Excerpt: The large conductance, voltage dependent and Ca^2+-activated potassium channel BK is a potassium selective ion channel and belongs to the subfamily of KCa channels. Four BK alpha-subunits form a functional channel that can be regulated by intracellular Ca^2+ concentration, membrane voltage, and other mechanisms like phosphorylation states or beta subunits. To test the biological activity of the compounds, we applied two different techniques, a fluorescence based assay using a voltage sensitive dye (Em-Assay) as well as exploiting electrophysiological methods.
CHO cells permanently transfected with cloned hSlo (α-hSlo and β-bSlo), yielding typical BK potassium currents (Zhou et al., Pflügers Arch., 436: 725-734 (1998), were used for the evaluation of compound activity. Activation or inhibition of BK channels in these cells leads to a change of the electrochemical gradient causing a hyperpolarized or depolarised membrane potential, respectively.
To determine changes in the membrane potential of the cells we used the voltage sensitive dye DiBAC(4)3 (Molecular Probes) in a kinetic assay system using a fluorescent plate reader (Manning and Sontheimer, J. Neurosci. Meth., 91: 73-81 (1999). The anionic bis-oxonol DiBAC(4)3 is a voltage sensitive dye which partitions from the extracellular environment into the cell where it reversibly binds to intracellular proteins, a kinetic process depending on the membrane potential of the cell. At depolarised potentials (i.e. at a reduced K^+ efflux due to blocked K^+ channels) the dye accumulates in the cell leading to an increased fluorescence intensity, due to its increased fluorescence if bound to cellular proteins. At hyperpolarized potentials (i.e. at an increased K^+ efflux due to the opening of K^+ channels), the dye partitions out of the cell causing a decreased fluorescence intensity.
hSlo transfected CHO cells where maintained in DMEM supplemented with 10% FCS, 250 μg/ml Geneticin, 100 μg/ml Hygromycin, 1×HT-Supplement, and 1×Non-essential Amino Acids and cultured in a humidified CO2 incubator. After trypsination, cells where plated with a density of 5×10^4 cells per well on a clear 96-well plate and incubated for 24 h. Cells where washed once with PBS, once with PBS containing 20 mM HEPES (adjusted to pH 7.4 with NaOH) and 2 μM DiBAC(4)3 (DPBS-DiMAC solution). 180 μl of the dPBS-DiBAC solution was then added to the cells and the plate incubated for 30-60 min at 37° C. During this time the dye could partition into the cells and reach a certain steady-state distribution, depending on the resting membrane potential. Test and reference compounds were stored as DMSO stock solutions and diluted in dPBS-DiBAC solution to the desired concentration.
Fluorescence intensity (Ex.: 485 nm/Em: 520 nm) of each well was detected in the plate reader (Fluostar, BMG) every 60 seconds. After recording the baseline fluorescence for 7 minutes, 20 μl test and reference compounds were added and the fluorescence intensity was detected for additional 15 minutes. Background was subtracted, data values were normalized and expressed as a change in fluorescence intensity against time. The change in fluorescence intensity caused by the test compounds was evaluated compared to the effect of the reference compound NS004, and the ratio was determined (see Table I).

[2] = target: BK currents, cloned α-hSlo and β-bSlo in CHO cells (Homo sapiens, UniProt Q12791); test: Electrophysiological studies (whole-cell patch-clamp, BK currents); assay type: cell-based; details: ratio of current increase after application of compound (20 μM) relative to control current before application, steady-state
BK currents, cloned α-hSlo and β-bSlo in CHO cells, sequence (Q12791 whole entry): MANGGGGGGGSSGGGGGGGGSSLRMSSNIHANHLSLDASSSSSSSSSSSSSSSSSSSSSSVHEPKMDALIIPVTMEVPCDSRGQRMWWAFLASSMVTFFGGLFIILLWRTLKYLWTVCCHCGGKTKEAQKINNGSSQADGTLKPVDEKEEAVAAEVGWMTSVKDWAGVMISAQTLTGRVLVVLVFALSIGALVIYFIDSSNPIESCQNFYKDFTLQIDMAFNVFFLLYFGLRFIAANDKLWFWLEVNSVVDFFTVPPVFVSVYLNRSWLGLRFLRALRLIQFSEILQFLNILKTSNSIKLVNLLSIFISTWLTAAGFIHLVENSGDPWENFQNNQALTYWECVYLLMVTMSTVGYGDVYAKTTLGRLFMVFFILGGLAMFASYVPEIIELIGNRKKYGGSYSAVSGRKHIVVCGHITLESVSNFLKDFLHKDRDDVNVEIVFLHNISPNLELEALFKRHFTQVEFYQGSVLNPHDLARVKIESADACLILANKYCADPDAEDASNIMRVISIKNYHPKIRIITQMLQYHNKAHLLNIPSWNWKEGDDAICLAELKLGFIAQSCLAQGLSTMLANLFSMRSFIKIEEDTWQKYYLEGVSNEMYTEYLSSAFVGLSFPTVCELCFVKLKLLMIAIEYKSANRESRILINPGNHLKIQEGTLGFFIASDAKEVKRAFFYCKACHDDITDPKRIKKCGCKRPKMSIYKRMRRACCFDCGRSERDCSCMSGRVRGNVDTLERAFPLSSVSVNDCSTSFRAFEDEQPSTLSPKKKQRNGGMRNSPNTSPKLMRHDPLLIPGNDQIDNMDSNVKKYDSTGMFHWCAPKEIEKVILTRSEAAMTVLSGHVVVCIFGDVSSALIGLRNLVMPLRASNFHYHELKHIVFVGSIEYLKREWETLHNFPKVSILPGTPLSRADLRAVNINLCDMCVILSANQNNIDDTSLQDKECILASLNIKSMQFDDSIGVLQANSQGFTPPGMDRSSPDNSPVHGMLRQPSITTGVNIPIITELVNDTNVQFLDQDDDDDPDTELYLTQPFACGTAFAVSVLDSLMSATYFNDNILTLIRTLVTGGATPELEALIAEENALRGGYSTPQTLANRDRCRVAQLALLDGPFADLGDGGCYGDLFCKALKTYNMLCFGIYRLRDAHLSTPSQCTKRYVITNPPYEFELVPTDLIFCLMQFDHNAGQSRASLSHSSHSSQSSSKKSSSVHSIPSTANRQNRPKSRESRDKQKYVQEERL
BK currents, cloned α-hSlo and β-bSlo in CHO cells, sequence (Q28067 whole entry partner): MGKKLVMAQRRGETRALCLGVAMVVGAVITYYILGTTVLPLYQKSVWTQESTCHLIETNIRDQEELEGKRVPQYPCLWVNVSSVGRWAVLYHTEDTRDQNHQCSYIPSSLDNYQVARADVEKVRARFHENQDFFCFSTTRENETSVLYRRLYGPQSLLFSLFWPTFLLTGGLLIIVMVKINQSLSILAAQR
Experimental: CHO cells permanently transfected with cloned α-hSlo and β-bSlo were maintained as described above and used for electrophysiologial characterisation. The whole-cell configuration of the patch-clamp technique was used to determine the effect of modulators on BK currents in these cells. The cell line expressing functional BK currents (Zhou et al., Pflügers Arch 436, p.725 (1998)) were plated onto glass cover slips with a density of 1-5×10^4 cells/cover slip, incubated (37° C., 5% CO2) and used for patch-clamp experiments within 24-48 h. Cells were bathed in mammalian ringer solutions containing (in mM): 160 NaCl, 4.5 KCl, 2CaCl2, 1 MgCl2, 10 HEPES, adjusted to pH 7.4, 290-310 mOsim. The internal pipette solution contained (in mM): 160 KCl, 2CaCl2, 1 MgCl2, 10 HEPES, EGTA was added to reach a free [Ca^2+]internal=1×10 ^−6M, adjusted to pH 7.2, 290-310 mOsm.
Borosilicate pipettes with a resistance of 2-3 MΩ were filled with the internal solution and mounted on an appropriate holder. Prior to measurements a recording chamber was mounted onto the cell-plated cover slips and the cells were perfused with a simple syringe driven perfusion system. Compounds were added in the final concentration ([…]) to the bath solution using the same system. An EPC-9 patch-clamp amplifier with Pulse and PulseFit software (HEKA) was used to record and analyze currents.
After addition of the compounds to the bath solution their modulating effect was determined by the increase or decrease of specific BK currents after reaching steady-state relative to the BK current before application of drugs (see Table II).

BK channels, cloned hSlo (α-hSlo and β-bSlo) in CHO cells, sequence (Q12791 whole entry): as the sequence (Q12791 whole entry) above
BK channels, cloned hSlo (α-hSlo and β-bSlo) in CHO cells, sequence (Q28067 whole entry partner): as the sequence (Q28067 whole entry partner) above

CC(=O)c1cccc(-c2ccc3[nH]ccc3c2)c1 [Compound 49]
Em effect [1]: + (0-1=+)

c1ccc(Oc2ccc(-c3cccc4[nH]ccc34)cc2)cc1 [Compound 57]
Em effect [1]: + (0-1=+)

COc1c(C)cc(-c2ccc3[nH]ccc3c2)cc1C [Compound 51]
Em effect [1]: ++ (>1=++)

COc1ccc(-c2ccc3[nH]ccc3c2)cc1 [Compound 54]
Em effect [1]: ++ (>1=++)

FC(F)(F)c1ccc(-c2ccc3cc[nH]c3c2)cc1 [Compound 14]
Em effect [1]: + (0-1=+)

FC(F)(F)c1ccc(-c2cccc3cc[nH]c23)cc1 [Compound 8]
Em effect [1]: + (0-1=+)

COc1ccc(-c2ccc3[nH]ccc3c2)c(OC)c1 [Compound 48]
Em effect [1]: ++ (>1=++)

CN(C)c1ccc(-c2cccc3cc[nH]c23)cc1 [Compound 11]
Em effect [1]: ++ (>1=++)

Fc1ccc(-c2ccc3[nH]ccc3c2)c(F)c1 [Compound 3]
Effect (ratio of current increase) [2]: +++ (>1.2=+++) | Em effect [1]: ++ (>1=++)

c1cc2cc(-c3ccc4[nH]ccc4c3)ccc2[nH]1 [Compound 43]
Em effect [1]: + (0-1=+)

Fc1cccc(-c2ccc3cc[nH]c3c2)c1 [Compound 37]
Em effect [1]: + (0-1=+)

COc1ccc(-c2ccc3cc[nH]c3c2)cn1 [Compound 35]
Em effect [1]: + (0-1=+)

COc1ccccc1-c1cccc2cc[nH]c12 [Compound 7]
Em effect [1]: + (0-1=+)

COc1ccc(-c2cccc3[nH]ccc23)cc1 [Compound 42]
Em effect [1]: + (0-1=+)

O=[N+]([O-])c1ccccc1-c1ccc2[nH]ccc2c1 [Compound 33]
Em effect [1]: + (0-1=+)

CC(C)(C)c1ccc(-c2ccc3cc[nH]c3c2)cc1 [Compound 62]
Em effect [1]: + (0-1=+)

CN(C)c1ccc(-c2ccc3[nH]ccc3c2)cc1 [Compound 2]
Effect (ratio of current increase) [2]: + (1-1.1=+) | Em effect [1]: + (0-1=+)

Clc1ccc(-c2cccc3[nH]ccc23)s1 [Compound 22]
Effect (ratio of current increase) [2]: ++ (>1,1-1.2=++) | Em effect [1]: + (0-1=+)

Clc1ccccc1-c1ccc2[nH]ccc2c1 [Compound 30]
Effect (ratio of current increase) [2]: + (1-1.1=+) | Em effect [1]: ++ (>1=++)

Fc1ccc(-c2cccc3[nH]ccc23)c(F)c1 [Compound 55]
Em effect [1]: + (0-1=+)

c1ccc(COc2ccc(-c3cccc4[nH]ccc34)cc2)cc1 [Compound 36]
Em effect [1]: + (0-1=+)

FC(F)(F)Oc1cccc(-c2ccc3[nH]ccc3c2)c1 [Compound 34]
Em effect [1]: + (0-1=+)

c1cc2cc(-c3ccc4c(c3)OCO4)ccc2[nH]1 [Compound 50]
Em effect [1]: ++ (>1=++)

c1ccc(-c2ccc3[nH]ccc3c2)nc1 [Compound 52]
Em effect [1]: + (0-1=+)

FC(F)(F)c1ccc(-c2cccc3[nH]ccc23)cc1 [Compound 25]
Em effect [1]: + (0-1=+)

c1cc(-c2ccc3[nH]ccc3c2)c2cc[nH]c2c1 [Compound 47]
Em effect [1]: + (0-1=+)

COc1ccccc1-c1cccc2[nH]ccc12 [Compound 24]
Em effect [1]: + (0-1=+)

c1ccc(-c2cccc(-c3ccc4cc[nH]c4c3)c2)cc1 [Compound 60]
Em effect [1]: + (0-1=+)

CN(C)c1ccc(-c2ccc3cc[nH]c3c2)cc1 [Compound 17]
Em effect [1]: ++ (>1=++)

CC(C)(C)c1ccc(-c2cccc3[nH]ccc23)cc1 [Compound 39]
Em effect [1]: ++ (>1=++)

O=Cc1ccccc1-c1ccc2[nH]ccc2c1 [Compound 31]
Em effect [1]: + (0-1=+)

c1cc(-c2ccsc2)c2cc[nH]c2c1 [Compound 23]
Em effect [1]: + (0-1=+)

FC(F)(F)c1cc(-c2ccc3cc[nH]c3c2)cc(C(F)(F)F)c1 [Compound 61]
Em effect [1]: + (0-1=+)

c1ccc(-c2ccc3[nH]ccc3c2)cc1 [Compound 59]
Em effect [1]: + (0-1=+)

CC(C)(C)c1ccc(-c2ccc3[nH]ccc3c2)cc1 [Compound 32]
Em effect [1]: + (0-1=+)

FC(F)(F)c1cc(-c2cccc3[nH]ccc23)cc(C(F)(F)F)c1 [Compound 20]
Em effect [1]: + (0-1=+)

c1ccc2c(-c3ccc4[nH]ccc4c3)cccc2c1 [Compound 44]
Em effect [1]: ++ (>1=++)

Clc1ccc(-c2cccc3cc[nH]c23)s1 [Compound 6]
Em effect [1]: + (0-1=+)

COc1ccccc1-c1ccc2[nH]ccc2c1 [Compound 5]
Effect (ratio of current increase) [2]: ++ (>1,1-1.2=++) | Em effect [1]: ++ (>1=++)

Clc1ccc(-c2ccc3[nH]ccc3c2)cc1 [Compound 46]
Em effect [1]: ++ (>1=++)

Clc1ccccc1-c1cccc2[nH]ccc12 [Compound 26]
Em effect [1]: + (0-1=+)

FC(F)(F)Oc1ccc(-c2ccc3[nH]ccc3c2)cc1 [Compound 1]
Effect (ratio of current increase) [2]: ++ (>1,1-1.2=++) | Em effect [1]: ++ (>1=++)

COc1ccccc1-c1ccc2cc[nH]c2c1 [Compound 19]
Em effect [1]: + (0-1=+)

FC(F)(F)c1ccc(-c2ccc3[nH]ccc3c2)cc1 [Compound 4]
Effect (ratio of current increase) [2]: ++ (>1,1-1.2=++) | Em effect [1]: ++ (>1=++)

COc1cccc(-c2cccc3[nH]ccc23)c1 [Compound 56]
Em effect [1]: + (0-1=+)

CS(=O)(=O)c1ccc(-c2ccc3[nH]ccc3c2)cc1 [Compound 29]
Em effect [1]: + (0-1=+)

Clc1ccccc1-c1ccc2cc[nH]c2c1 [Compound 15]
Em effect [1]: + (0-1=+)

Fc1ccc(-c2ccc3cc[nH]c3c2)c(F)c1 [Compound 16]
Em effect [1]: + (0-1=+)

Fc1ccc(-c2cccc3cc[nH]c23)c(F)c1 [Compound 10]
Em effect [1]: + (0-1=+)

Clc1ccccc1-c1cccc2cc[nH]c12 [Compound 9]
Em effect [1]: + (0-1=+)

FC(F)(F)Oc1cccc(-c2cccc3cc[nH]c23)c1 [Compound 38]
Em effect [1]: + (0-1=+)

FC(F)(F)Oc1ccc(-c2cccc3[nH]ccc23)cc1 [Compound 28]
Em effect [1]: + (0-1=+)

Clc1ccc(-c2ccc3cc[nH]c3c2)s1 [Compound 13]
Em effect [1]: + (0-1=+)

Clc1ccc(-c2ccc3cc[nH]c3c2)cc1 [Compound 58]
Em effect [1]: + (0-1=+)

c1cc2cc(-c3ccc4cc[nH]c4c3)ccc2[nH]1 [Compound 53]
Em effect [1]: ++ (>1=++)

Fc1cc(-c2cccc3[nH]ccc23)ccc1-c1ccccc1 [Compound 21]
Em effect [1]: + (0-1=+)
